Laboratory results as given in patent US5919464A, “Treatment of aberrant cellular states with biomodulators” (University of New Mexico, priority 1993, dated 1999).

Test system: B16 melanoma cells
Assay: effect of swainsonine on cytotoxic T-lymphocytes (51Cr cytotoxicity assay)
Type: in vivo, mouse
Protocol: The cytotoxicity assay used two targets: YAC-1, for natural killer cell targets and B16 melanoma cells, for cytolytic T-cell targets. The YAC-1 cells were labelled in GKN (glucose/KCl/NaCl) with ^51 Cr (NEN-DuPont,400-1200 Ci/g activity) for 60 min. The B16's were ^51 Cr labelled in complete α-MEM media for 60 min. Both targets were washed twice through whole fetal calf serum to remove damaged and dead cells and then suspended in complete RPMI at a final concentration of 1×10^5 cells/ml. The spleen cells (effector cells) were plated in round bottom 96 well trays starting at 1×10^7 cells/ml (100μl/well), using a halving dilution that provided splenocyte concentrations of 10^6, 5×10^5, 2.5×10^5, 1.25×10^5, 6.25×10^4 and 3.125×10^4, all done in triplicate. The target cells were added at 1×10^4 cell/100 μl/well; this gave an effector:target cell ratio ranging from 100:1 to 3:1. Controls included spontaneous ^51 Cr release and 100% lysis (10% triton treatment). The trays were centrifuged at 50×g for 5 min. and incubated in a CO2 incubator at 37° C. for 16 hours. The trays were spun again at 50×g for 5 minutes and 100 μl removed from each well for counting. A Packard gamma counter (United Technologies) was used for counting. Each sample was counted for 1 min. giving a 5% counting efficiency. The following equation was used to determine percent lysis. [formula]
The effector:target ratios were then plotted against percent lysis and a simple line equation was determined for each treatment group. The slope of this line was then used to determine the total effector kill efficiency.
The ^51 Cr cytotoxicity assay was also run with the B16 melanoma cells as the target and the splenocytes from the same mice as above as the effector cells. The baseline mice (no tumor/no Sw) and the control mice (tumor/no Sw) had very similar line shapes and slopes. There were significant differences (p=0.03) between the presence and absence of tumor (see Table in FIG. 68).

Which “increase in line slope (kill efficiency)” value (0.1 μg Sw alone) does the source give for `O[C@H]1[C@H]2[C@H](O)CCCN2C[C@H]1O` [Swainsonine, swainsonine] here?
Its value is 104%.

What about the “CTL activity before exposure to specific target” value (0.1 μg Sw for 3 weeks, in words) of the same compound?
The value was “significant increase in the CTL activity”.

And the “convertability from NK to CTL” value (0.1 μg Sw with tumors, tumor control 17.5%)?
Its value is 39%.
